Data from patent US10238670B2, “9-aminomethyl minocycline compounds and methods of use thereof in urinary tract infection (UTI) treatment” (Paratek Pharmaceuticals, Inc., priority 2016, dated 2019).
In brackets after ≈: the same amount, converted by molar mass. Like-named read-outs stand apart in the source and are kept apart here.

Key:
Test in all cases: In vitro MIC, 2010 surveillance isolates
MS CoNS = format: cell-based, Coagulase-Negative Staphylococcus
E. faecalis VS = format: cell-based
E. coli ESBL+ = format: cell-based, Escherichia coli
E. faecalis VNS = format: cell-based
Enterobacter spp = format: cell-based
A. baumanii = format: cell-based
E. faecium VNS = format: cell-based
MSSA = format: cell-based
K. pneumoniae ESBL− = format: cell-based, Klebsiella pneumoniae
E. cloacae CeftazS = format: cell-based
E. cloacae CeftazR = format: cell-based
E. coli ESBL− = format: cell-based, Escherichia coli
E. faecium VS = format: cell-based
MRSA = format: cell-based
K. oxytoca = format: cell-based
Acinetobacter spp = format: cell-based; details: for % R (resistance): CLSI breakpoints
MR CoNS = format: cell-based, Coagulase-Negative Staphylococcus
K. pneumoniae ESBL+ = format: cell-based, Klebsiella pneumoniae

What does the source list for `CO/N=C(\C(=O)N[C@@H]1C(=O)N2C(C(=O)O)=C(CSc3nc(=O)c(=O)[nH]n3C)CS[C@H]12)c1csc(N)n1` [Ceftriaxone]?
% R (resistance) (MS CoNS; Asia/Pac, Eucast breakpoints): 0%; MIC90 (MS CoNS; Asia/Pac, N=18): 8 µg/mL (≈ 14.4 µM); % R (resistance) (MS CoNS; Europe, Eucast breakpoints): 0%; MIC90 (MS CoNS; Europe, N=185): 4 µg/mL (≈ 7.21 µM); % R (resistance) (MS CoNS; L. Amer, CLSI breakpoints): 0%; MIC90 (MS CoNS; L. Amer, N=67): 4 µg/mL (≈ 7.21 µM); % R (resistance) (MS CoNS; N America, CLSI breakpoints): 0%; MIC90 (MS CoNS; N America, N=191): 4 µg/mL (≈ 7.21 µM); MIC90 (E. faecalis VS; Asia/Pac, N=214): > 8 µg/mL; MIC90 (E. faecalis VS; Europe, N=669): > 8 µg/mL; MIC90 (E. faecalis VS; L. Amer, N=290): > 8 µg/mL; MIC90 (E. faecalis VS; N America, N=863): > 8 µg/mL; % R (resistance) (E. coli ESBL+; Asia/Pac, Eucast breakpoints): 99.5%; MIC90 (E. coli ESBL+; Asia/Pac, N=219): > 8 µg/mL; resistance rates for ESBL-producing clinical isolates (E. coli ESBL+; E. coli): 95%; MIC90 (E. coli ESBL+; Escherichia coli, ESBL-producing E. coli, read-out: MIC90): > 8 µg/mL; % R (resistance) (E. coli ESBL+; Europe, Eucast breakpoints): 94.2%; MIC90 (E. coli ESBL+; Europe, N=274): > 8 µg/mL; % R (resistance) (E. coli ESBL+; L. Amer, CLSI breakpoints): 97.6%; MIC90 (E. coli ESBL+; L. Amer, N=168): > 8 µg/mL; % R (resistance) (E. coli ESBL+; N America, CLSI breakpoints): 85.8%; MIC90 (E. coli ESBL+; N America, N=134): > 8 µg/mL; range of MICs (N <10, shown instead of MIC90) (E. faecalis VNS; Asia/Pac, N=1): >8; range of MICs (N <10, shown instead of MIC90) (E. faecalis VNS; Europe, N=8): >8; range of MICs (N <10, shown instead of MIC90) (E. faecalis VNS; L. Amer, N=7): >8; MIC90 (E. faecalis VNS; N America, N=38): > 8 µg/mL; % R (resistance) (Enterobacter spp; Asia/Pac, Eucast breakpoints): 30.8%; MIC90 (Enterobacter spp; Asia/Pac, N=52): > 8 µg/mL; % R (resistance) (Enterobacter spp; Europe, Eucast breakpoints): 39%; MIC90 (Enterobacter spp; Europe, N=82): > 8 µg/mL; % R (resistance) (Enterobacter spp; L. Amer, CLSI breakpoints): 31%; MIC90 (Enterobacter spp; L. Amer, N=42): > 8 µg/mL; % R (resistance) (Enterobacter spp; N America, CLSI breakpoints): 24.8%; MIC90 (Enterobacter spp; N America, N=101): > 8 µg/mL; MIC90 (A. baumanii; Asia/Pac, N=275): > 8 µg/mL; MIC90 (A. baumanii; Europe, N=145): > 8 µg/mL; MIC90 (A. baumanii; L. Amer, N=275): > 8 µg/mL; MIC90 (A. baumanii; N America, N=154): > 8 µg/mL; MIC90 (E. faecium VNS; Asia/Pac, N=24): > 8 µg/mL; MIC90 (E. faecium VNS; Europe, N=71): > 8 µg/mL; MIC90 (E. faecium VNS; L. Amer, N=41): > 8 µg/mL; MIC90 (E. faecium VNS; N America, N=478): > 8 µg/mL; % R (resistance) (MSSA; Asia/Pac, Eucast breakpoints): 0%; MIC90 (MSSA; Asia/Pac, N=641): 4 µg/mL (≈ 7.21 µM); % R (resistance) (MSSA; Europe, Eucast breakpoints): 0%; MIC90 (MSSA; Europe, N=2109): 4 µg/mL (≈ 7.21 µM); % R (resistance) (MSSA; L. Amer, CLSI breakpoints): 0%; MIC90 (MSSA; L. Amer, N=590): 4 µg/mL (≈ 7.21 µM); % R (resistance) (MSSA; N America, CLSI breakpoints): 0.1%; MIC90 (MSSA; N America, N=2373): 4 µg/mL (≈ 7.21 µM); % R (resistance) (K. pneumoniae ESBL−; Asia/Pac, Eucast breakpoints): 0%; MIC90 (K. pneumoniae ESBL−; Asia/Pac, N=189): 0.12 µg/mL (≈ 0.216 µM); % R (resistance) (K. pneumoniae ESBL−; Europe, Eucast breakpoints): 0%; MIC90 (K. pneumoniae ESBL−; Europe, N=361): 0.12 µg/mL (≈ 0.216 µM); % R (resistance) (K. pneumoniae ESBL−; L. Amer, CLSI breakpoints): 0%; MIC90 (K. pneumoniae ESBL−; L. Amer, N=160): 0.12 µg/mL (≈ 0.216 µM); % R (resistance) (K. pneumoniae ESBL−; N America, CLSI breakpoints): 0%; MIC90 (K. pneumoniae ESBL−; N America, N=671): 0.12 µg/mL (≈ 0.216 µM); % R (resistance) (E. cloacae CeftazS; Asia/Pac, Eucast breakpoints): 5%; MIC90 (E. cloacae CeftazS; Asia/Pac, N=100): 2 µg/mL (≈ 3.61 µM); % R (resistance) (E. cloacae CeftazS; Europe, Eucast breakpoints): 7.7%; MIC90 (E. cloacae CeftazS; Europe, N=183): 2 µg/mL (≈ 3.61 µM); % R (resistance) (E. cloacae CeftazS; L. Amer, CLSI breakpoints): 24.6%; MIC90 (E. cloacae CeftazS; L. Amer, N=57): > 8 µg/mL; % R (resistance) (E. cloacae CeftazS; N America, CLSI breakpoints): 3.3%; MIC90 (E. cloacae CeftazS; N America, N=210): 1 µg/mL (≈ 1.8 µM); % R (resistance) (E. cloacae CeftazR; Asia/Pac, Eucast breakpoints): 100%; MIC90 (E. cloacae CeftazR; Asia/Pac, N=63): > 8 µg/mL; % R (resistance) (E. cloacae CeftazR; Europe, Eucast breakpoints): 100%; MIC90 (E. cloacae CeftazR; Europe, N=72): > 8 µg/mL; % R (resistance) (E. cloacae CeftazR; L. Amer, CLSI breakpoints): 100%; MIC90 (E. cloacae CeftazR; L. Amer, N=42): > 8 µg/mL; % R (resistance) (E. cloacae CeftazR; N America, CLSI breakpoints): 100%; MIC90 (E. cloacae CeftazR; N America, N=77): > 8 µg/mL; % R (resistance) (E. coli ESBL−; Asia/Pac, Eucast breakpoints): 0%; MIC90 (E. coli ESBL−; Asia/Pac, N=282): 0.12 µg/mL (≈ 0.216 µM); % R (resistance) (E. coli ESBL−; Europe, Eucast breakpoints): 0%; MIC90 (E. coli ESBL−; Europe, N=1533): 0.12 µg/mL (≈ 0.216 µM); % R (resistance) (E. coli ESBL−; L. Amer, CLSI breakpoints): 0%; MIC90 (E. coli ESBL−; L. Amer, N=389): 0.12 µg/mL (≈ 0.216 µM); % R (resistance) (E. coli ESBL−; N America, CLSI breakpoints): 0%; MIC90 (E. coli ESBL−; N America, N=1172): 0.12 µg/mL (≈ 0.216 µM); MIC90 (E. faecium VS; Asia/Pac, N=106): > 8 µg/mL; MIC90 (E. faecium VS; Europe, N=303): > 8 µg/mL; MIC90 (E. faecium VS; L. Amer, N=51): > 8 µg/mL; MIC90 (E. faecium VS; N America, N=115): > 8 µg/mL; % R (resistance) (MRSA; Asia/Pac, Eucast breakpoints): 100%; MIC90 (MRSA; Asia/Pac, N=428): > 8 µg/mL; % R (resistance) (MRSA; Europe, Eucast breakpoints): 100%; MIC90 (MRSA; Europe, N=750): > 8 µg/mL; % R (resistance) (MRSA; L. Amer, CLSI breakpoints): 100%; MIC90 (MRSA; L. Amer, N=506): > 8 µg/mL; % R (resistance) (MRSA; N America, CLSI breakpoints): 100%; MIC90 (MRSA; N America, N=2508): > 8 µg/mL; % R (resistance) (K. oxytoca; Asia/Pac, Eucast breakpoints): 29.4%; MIC90 (K. oxytoca; Asia/Pac, N=17): > 8 µg/mL; % R (resistance) (K. oxytoca; Europe, Eucast breakpoints): 17.7%; MIC90 (K. oxytoca; Europe, N=158): > 8 µg/mL; % R (resistance) (K. oxytoca; L. Amer, CLSI breakpoints): 40%; MIC90 (K. oxytoca; L. Amer, N=25): > 8 µg/mL; % R (resistance) (K. oxytoca; N America, CLSI breakpoints): 10.2%; MIC90 (K. oxytoca; N America, N=177): 4 µg/mL (≈ 7.21 µM); MIC90 (Acinetobacter spp; Europe, N=43): > 8 µg/mL; % R (resistance) (Acinetobacter spp; L. Amer): 0%; % R (resistance) (Acinetobacter spp; N America): 0%; MIC90 (Acinetobacter spp; N America, N=42): > 8 µg/mL; % R (resistance) (MR CoNS; Asia/Pac, Eucast breakpoints): 100%; MIC90 (MR CoNS; Asia/Pac, N=77): > 8 µg/mL; % R (resistance) (MR CoNS; Europe, Eucast breakpoints): 100%; MIC90 (MR CoNS; Europe, N=510): > 8 µg/mL; % R (resistance) (MR CoNS; L. Amer, CLSI breakpoints): 100%; MIC90 (MR CoNS; L. Amer, N=301): > 8 µg/mL; % R (resistance) (MR CoNS; N America, CLSI breakpoints): 100%; MIC90 (MR CoNS; N America, N=461): > 8 µg/mL; % R (resistance) (K. pneumoniae ESBL+; Asia/Pac, Eucast breakpoints): 93.5%; MIC90 (K. pneumoniae ESBL+; Asia/Pac, N=124): > 8 µg/mL; % R (resistance) (K. pneumoniae ESBL+; Europe, Eucast breakpoints): 94.7%; MIC90 (K. pneumoniae ESBL+; Europe, N=151): > 8 µg/mL; % R (resistance) (K. pneumoniae ESBL+; L. Amer, CLSI breakpoints): 99.5%; MIC90 (K. pneumoniae ESBL+; L. Amer, N=209): > 8 µg/mL; % R (resistance) (K. pneumoniae ESBL+; N America, CLSI breakpoints): 95.4%; MIC90 (K. pneumoniae ESBL+; N America, N=108): > 8 µg/mL
